Measurements as given in patent US10668049B2, “Methods of treating cognitive decline with transforming growth factor beta inhibitors” (The Regents of the University of California, priority 2008, dated 2020).

Tested on: neuronal-enriched culture
Assay: RT-PCR of neuronal-enriched cultures exposed to albumin
Type: cell-based, rat
Details: albumin for 24 h
Experimental: Primary neuronal cortical cultures were prepared from embryonic day 18 rats as reported previously (Kaufer et al., 2004). Briefly, cells were dissociated with a papain solution for 20 min at 37° C., After the removal of the papain solution, the tissue was resuspended in growth medium [MEM with Earle's salts containing 2.5% B27 supplement, 0.1% mito serum extender, 5% fetal bovine serum (FBS), 20 mM glucose, and 5 mM L-glutamine] and dissociated by mechanical trituration. The cells were plated, and after 4 h in vitro the cell culture medium was replaced with neurobasal medium supplemented with 2% B27 supplement and 0.5 mM GlutaMAX™. The cells were maintained in 5% CO2 at 37° C. After 7 days in vitro, cytosine arabinofuranoside (AraC) (10 μM) was added to the cultures. After 10 days in vitro, the cells were incubated with 0.4 mM albumin for 24 h at 37° C. For astrocytic cultures, astrocytcs were isolated from the cerebral cortices of PO rat pups. Cells were dissociated with papain and mechanical trituration. The cells were cultured in high-glucose Dulbecco's modified eagle medium supplemented with 10% FBS and 1% penicillin/streptomycin at 37° C. and in 5% C02 (medium was replaced every 3-4 days). After 10 days in vitro, the culture medium was replaced with serum-free high-glucose DMEM (containing 1% penicillin/streptomycin) for 18 h. The cells were then incubated in scrum-free medium containing 0.4 mM albumin for 24 h at 37° C. […]
Total RNA was isolated from the somatosensory cortices of animals treated with DOC or albumin (24 h treatment; n=3) or from primary cultures (astrocytic and neuronal, n=3 independent experiments). Expression levels were determined by real-time reverse transcriptase-PCR (RT-PCR) with an iQ5 detection system (Bio-Rad, Hercules, Calif.) using gene-specific primer pairs. RT-PCR data were analyzed using the PCR Miner program (Zhao and Fernald, 2005), and fold changes in gene expression were represented relative to sham-operated controls (in-vivo samples) or serum-deprived controls (in-vitro, samples). […]

albumin: bovine serum albumin, used to induce epileptogenesis
GS mRNA levels: downregulation | Gjb6 mRNA levels: upregulation | expression levels of the same transcripts (except GS and Gjb6): No significant differences
